How the values were obtained:
[1] = Solubility, dissolution time (specification); assay type: physicochemical
[2] = Stability of the active ingredient in hydrophilic ointment (cream) formulation; assay type: physicochemical; settings: hydrophilic ointment DAB base; except for methionine-oxidized metabolites
Source text: In one embodiment of the invention, the hemoparatide (hPTH-1-37) or its derivatives are used for preparing a medicament in different galenic application forms, especially as a lyophilizate. In one embodiment of this medicament, a hydrophilic ointment, especially according to the German Pharmacopoeia, is used as a galenic application base. […] These oxidized metabolites also occur as natural PTH forms in the blood plasma, but can be avoided by working under a nitrogen atmosphere, and are free from side effects, being naturally occurring endogenous derivatives.
Hemoparatide was incorporated into this base in concentrations of 0.03% by weight, 0.1% by weight and 0.3% by weight.
These oxidized metabolites also occur as natural PTH forms in the blood plasma, but can be avoided by working under a nitrogen atmosphere, and are free from side effects, being naturally occurring endogenous derivatives.

[3] = Storage stability of the lyophilized preparation at +4° C., HPLC comparison of fresh material and material stored nine months; assay type: physicochemical; settings: lyophilized form
Source text: FIGS. 4A and 4B disclose HPLC chromatograms of hPTH-1-37. […] FIG. 4B is a chromatogram of hPTH-1-37 stored for nine months. […] Further, FIG. 5 discloses a comparison between the HPLC chromatograms of freshly prepared hPTH-1-37 (A) and a commercially obtainable preparation.

[4] = Phase I trial, tolerability of subcutaneous injection in aqueous solution; assay type: in vivo; settings: humans

Row | Solubility, dissolution time [1] | Stability of active ingredient in formulation [2] | Structure (SMILES) | Methionine-oxidized metabolites after storage (stability) [3] | Tolerability [4]
1 | ≦2 min | very stable | CC[C@H](C)[C@H](NC(=O)[C@H](CCC(=O)O)NC(=O)[C@H](CO)NC(=O)[C@@H](NC(=O)[C@@H](N)CO)C(C)C)C(=O)N[C@@H](CCC(N)=O)C(=O)N[C@@H](CC(C)C)C(=O)N[C@@H](CCSC)C(=O)N[C@@H](Cc1c[nH]cn1)C(=O)N[C@@H](CC(N)=O)C(=O)N[C@@H](CC(C)C)C(=O)NCC(=O)N[C@@H](CCCCN)C(=O)N[C@@H](Cc1c[nH]cn1)C(=O)N[C@@H](CC(C)C)C(=O)N[C@@H](CC(N)=O)C(=O)N[C@@H](CO)C(=O)N[C@@H](CCSC)C(=O)N[C@@H](CCC(=O)O)C(=O)N[C@@H](CCCNC(=N)N)C(=O)N[C@H](C(=O)N[C@@H](CCC(=O)O)C(=O)N[C@@H](Cc1c[nH]c2ccccc12)C(=O)N[C@@H](CC(C)C)C(=O)N[C@@H](CCCNC(=N)N)C(=O)N[C@@H](CCCCN)C(=O)N[C@@H](CCCCN)C(=O)N[C@@H](CC(C)C)C(=O)N[C@@H](CCC(N)=O)C(=O)N[C@@H](CC(=O)O)C(=O)N[C@H](C(=O)N[C@@H](Cc1c[nH]cn1)C(=O)N[C@@H](CC(N)=O)C(=O)N[C@@H](Cc1ccccc1)C(=O)N[C@H](C(=O)N[C@@H](C)C(=O)N[C@@H](CC(C)C)C(=O)O)C(C)C)C(C)C)C(C)C [hPTH-1-37] | Only very small amounts of methionine-oxidized metabolites can be detected | –
2 | ≦2 min | – | CC[C@H](C)[C@H](NC(=O)[C@H](CCC(=O)O)NC(=O)[C@H](CO)NC(=O)[C@@H](NC(=O)[C@@H](N)CO)C(C)C)C(=O)N[C@@H](CCC(N)=O)C(=O)N[C@@H](CC(C)C)C(=O)N[C@@H](CCSC)C(=O)N[C@@H](Cc1c[nH]cn1)C(=O)N[C@@H](CC(N)=O)C(=O)N[C@@H](CC(C)C)C(=O)NCC(=O)N[C@@H](CCCCN)C(=O)N[C@@H](Cc1c[nH]cn1)C(=O)N[C@@H](CC(C)C)C(=O)N[C@@H](CC(N)=O)C(=O)N[C@@H](CO)C(=O)N[C@@H](CCSC)C(=O)N[C@@H](CCC(=O)O)C(=O)N[C@@H](CCCNC(=N)N)C(=O)N[C@H](C(=O)N[C@@H](CCC(=O)O)C(=O)N[C@@H](Cc1c[nH]c2ccccc12)C(=O)N[C@@H](CC(C)C)C(=O)N[C@@H](CCCNC(=N)N)C(=O)N[C@@H](CCCCN)C(=O)N[C@@H](CCCCN)C(=O)N[C@@H](CC(C)C)C(=O)N[C@@H](CCC(N)=O)C(=O)N[C@@H](CC(=O)O)C(=O)N[C@H](C(=O)N[C@@H](Cc1c[nH]cn1)C(=O)N[C@@H](CC(N)=O)C(=O)N[C@@H](Cc1ccccc1)C(=O)N[C@H](C(=O)N[C@@H](C)C(=O)N[C@@H](CC(C)C)C(=O)O)C(C)C)C(C)C)C(C)C [highly pure hemoparatide] | only a small amount of methionine-oxidized metabolites appears | high tolerability

From patent publication US20110263509A1, “PREPARATION AND USE OF HIGH-PURITY HEMOPARATIDE (HPTH-1-37) FOR THE TREATMENT OF INFLAMMATORY SCALING DISEASES OF THE SKIN” (Haemopep Pharma GmbH, priority 2008, published 2011)
